In BindingDB's records for doi:10.1016/S0960-894X(00)80229-2 (1992):

Assay: Agonistic activity at kappa opioid receptor of rabbit vas deferens

Row | SMILES | IC50 [nM]
1 | CC(=O)N1CCN(C(=O)Cc2ccc(Cl)c(Cl)c2)C(CN2CC[C@H](O)C2)C1 (stereo partly drawn) [1-[4-Acetyl-2-((S)-3-hydroxy-pyrrolidin-1-ylmethyl)-piperazin-1-yl]-2-(3,4-dichloro-phenyl)-ethanone] | 0.22
2 | CC(=O)N1CCN(C(=O)Cc2cc(F)cc(F)c2)C(CN2CC[C@H](O)C2)C1 (stereo partly drawn) [1-[4-Acetyl-2-((S)-3-hydroxy-pyrrolidin-1-ylmethyl)-piperazin-1-yl]-2-(3,5-difluoro-phenyl)-ethanone] | 4.6
3 | COc1cccc(CC(=O)N2CCN(C(C)=O)CC2CN2CC[C@H](O)C2)c1 (stereo partly drawn) [1-[4-Acetyl-2-((S)-3-hydroxy-pyrrolidin-1-ylmethyl)-piperazin-1-yl]-2-(3-methoxy-phenyl)-ethanone] | 49
4 | CC(=O)N1CCN(C(=O)Cc2cccc([N+](=O)[O-])c2)C(CN2CC[C@H](O)C2)C1 (stereo partly drawn) [1-[4-Acetyl-2-((S)-3-hydroxy-pyrrolidin-1-ylmethyl)-piperazin-1-yl]-2-(3-nitro-phenyl)-ethanone] | 14
5 | CC(=O)N1CCN(C(=O)Cc2ccc([S+](C)[O-])cc2)C(CN2CC[C@H](O)C2)C1 (stereo partly drawn) [1-[4-Acetyl-2-((S)-3-hydroxy-pyrrolidin-1-ylmethyl)-piperazin-1-yl]-2-(4-methanesulfinyl-phenyl)-ethanone] | 140
6 | CC(=O)N1CCN(C(=O)Cc2ccc(S(C)(=O)=O)cc2)C(CN2CC[C@H](O)C2)C1 (stereo partly drawn) [1-[4-Acetyl-2-((S)-3-hydroxy-pyrrolidin-1-ylmethyl)-piperazin-1-yl]-2-(4-methanesulfonyl-phenyl)-ethanone] | 0.9
7 | COc1ccc(CC(=O)N2CCN(C(C)=O)CC2CN2CC[C@H](O)C2)cc1 (stereo partly drawn) [1-[4-Acetyl-2-((S)-3-hydroxy-pyrrolidin-1-ylmethyl)-piperazin-1-yl]-2-(4-methoxy-phenyl)-ethanone] | 230
8 | CSc1ccc(CC(=O)N2CCN(C(C)=O)CC2CN2CC[C@H](O)C2)cc1 (stereo partly drawn) [1-[4-Acetyl-2-((S)-3-hydroxy-pyrrolidin-1-ylmethyl)-piperazin-1-yl]-2-(4-methylsulfanyl-phenyl)-ethanone] | 37
9 | CC(=O)N1CCN(C(=O)Cc2ccc([N+](=O)[O-])cc2)C(CN2CC[C@H](O)C2)C1 (stereo partly drawn) [1-[4-Acetyl-2-((S)-3-hydroxy-pyrrolidin-1-ylmethyl)-piperazin-1-yl]-2-(4-nitro-phenyl)-ethanone] | 6.3
10 | CC(=O)N1CCN(C(=O)Cc2ccc(C(F)(F)F)cc2)C(CN2CC[C@H](O)C2)C1 (stereo partly drawn) [1-[4-Acetyl-2-((S)-3-hydroxy-pyrrolidin-1-ylmethyl)-piperazin-1-yl]-2-(4-trifluoromethyl-phenyl)-ethanone] | 1.5
11 | CC(=O)N1CCN(C(=O)Cc2ccccc2)C(CN2CC[C@H](O)C2)C1 (stereo partly drawn) [1-[4-Acetyl-2-((S)-3-hydroxy-pyrrolidin-1-ylmethyl)-piperazin-1-yl]-2-phenyl-ethanone] | 400
12 | COC(=O)N1CCN(C(=O)Cc2ccc(Cl)c(Cl)c2)[C@@H](CN2CCCC2)C1 [4-[2-(3,4-Dichloro-phenyl)-acetyl]-3-pyrrolidin-1-ylmethyl-piperazine-1-carboxylic acid methyl ester] | 0.02
